{"source": "paper PMC5905968", "about": "“Evaluation of the fusion inhibitor P3 peptide as a potential microbicide to prevent HIV transmission in women” (PLoS ONE, 2018)", "key": {"[1]": {"test_system": "HIV-1 isolate 93AOHDC250", "experiment": "Single-round viral infectivity assay, luciferase, TZM-bl reporter cells, after exposure of P3 to fluids, temperature, pH or H2O2", "method": "The antiviral activity of P3 in the presence of SP and VFS was determined with a single-round viral infectivity assay using TZM-bl reporter cells, as previously described. Briefly, TZM-bl cells were plated (1x10^4 cells/well) in a 96-plate and incubated overnight at 37°C with 5% CO2. […] The same procedure was done with VFS and with SP+VFS. Cells were then infected with 200 TCID50 (in 100 μl) of HIV-1 isolate 93AOHDC250 and incubated for 48h before measuring the luciferase activity with the Pierce Firefly Luc One-Step Glow Assay Kit (ThermoFisher Scientific, Rockford, USA) according to the manufacturer’s instructions. At least two independent experiments, each in triplicate, were performed for each antiviral activity analysis. For these experiments, the positive control was made of cells plus virus, the negative control was made of cells plus complete growth medium, compound controls were made of cells plus P3 alone or P3 in SP, VFS or SP+VPS, and the biological fluids control were made of cells plus SP, VFS or SP+VFS.\nThe long-term stability of P3 was evaluated in the presence of SP [0.5% or 1% (v/v)] or VFS at 37°C for a period of 24h, 48h and 1 week before performing the assay, as described above. In all cases, P3 was considered stable in the presence of biologic fluids if its antiviral activity was unaffected by SP, VFS and SP+VFS. In addition, peptide concentration was determined after exposure to the above conditions by mass spectrometry as described below.\nThe stability and antiviral activity of P3 were evaluated at different conditions of temperature, pH and oxidation. […] The antiviral activity of each peptide solution was then evaluated with a single-round viral infectivity assay using TZM-bl reporter cells and HIV-1 isolate 93AOHDC250, as described above.\nThe effect of pH on P3 was evaluated at pH ranging from 4 to 8. Briefly, IC50 peptide solutions were prepared in GM and the pH was adjusted using HCl (1M) or NaOH (1M). Each solution was then incubated at 37°C for 2, 8 and 24 hours and their antiviral activity was determined in a single-round viral infectivity assay using a luciferase reporter gene assay in TZM-bl cells as described above.\nTo test for oxidation by H2O2, P3 solutions at concentrations corresponding to the IC50 and IC90 were treated with H2O2 at biologic relevant concentrations (1.2μM and 5μM). The antiviral activity of the different solutions was determined in a single-round viral infectivity assay using a luciferase reporter gene assay in TZM-bl cells, as described above.\nControls for these experiments were the following: positive controls (cells plus virus), negative controls (cells plus complete growth medium); pH compound controls (cells plus P3 in different pH growth medium); H2O2 compound controls (cells plus P3 in H2O2, 1.2μM or 5μM); cell controls were also performed under the same incubation conditions. H2O2 and pH cytotoxicity were assessed in TZM-bl cells using alamarBlue assay. In all cases, P3 was considered stable when its antiviral activity was unaffected under the different conditions tested."}, "[2]": {"experiment": "LC-MS/MS determination of P3 after exposure to seminal plasma or vaginal fluid simulant", "assay_type": "in vitro ADME, human", "details": "triplicates; for P3 level: 37°C, LC-MS/MS, below limit of quantification (2.5 ppm)", "method": "Individual standard solutions (0.25–250 ppm) of P3 were prepared in acetonitrile (99.9% LC–MS) (J.T.Baker, Deventer, the Netherlands) in the presence of SP (0.5 or 1.0%), VFS or growth medium (GM) and analyzed after 24h, 48h and 1 week. In order to precipitate the proteins in the biological fluids, 1 ml of acetonitrile (1:1) was added to 1 ml of sample and samples were centrifuged at 13,000 rpm for 10 min and filtered ([…] PVDF membrane; Chromafil®Xtra from Macherey-Nagel®) just before analysis, All samples were analyzed as triplicates.\nThe LC system was a Waters® Alliance 2695 (Waters®) equipped with a quaternary pump, solvent degasser, auto sampler and column oven, coupled to a Photodiode Array Detector Waters 996 PDA (Waters®) scanning from 210 to 600 nm. The separation was performed on a reversed phase column LiChrospher® 100 RP-18 (10 x 4.0mm; Merck®, Germany) operating at 35 °C, using an injection volume of 10 μl. The mobile phase consisted of water [Ultra-pure water (18.2MΩ.cm) from a Millipore-Direct Q3 UV system (Millipore, USA)] with TFA 0.1% (v/v) (98% p.a.; Merck®, Germany) (A) and acetonitrile with TFA 0.1% (v/v) (B) at a flow rate of 0.30 ml/min. The following gradient was used: 70% of A as initial conditions, 70% A to 30% A for 7 min. A cleaning step was performed using 100% of acetonitrile for 1 min and finally the column was re-equilibrated with 70% of eluent A for 5 min.\nA triple quadrupole mass spectrometer MicroMass® Quattro micro (Micromass®, Waters®) with an electrospray ionization source (ESI) was coupled to the LC system, described above. The ion source conditions were optimized using a standard solution directly injected in the ion source: temperature 120°C, capillary voltage 3.0 kV and cone voltage 50 V. The compound was ionized in positive ion mode and the spectra, in Full Scan, were recorded in the range m/z 100–1700. All analyses were performed in multiple reactions monitoring (MRM) mode in order to achieve a high selectivity and sensitivity. […]"}}, "data": [{"smiles": "CC[C@H](C)[C@H](NC(=O)[C@H](CC(N)=O)NC(=O)[C@H](C)NC(=O)[C@H](CCC(=O)O)NC(=O)[C@H](CC(C)C)NC(=O)[C@H](Cc1ccc(O)cc1)NC(=O)[C@H](CCCNC(=N)N)NC(=O)[C@@H](NC(=O)[C@H](CCC(N)=O)NC(=O)[C@H](CCC(N)=O)NC(=O)[C@H](CCC(=O)O)NC(=O)[C@H](Cc1c[nH]c2ccccc12)NC(=O)[C@H](CCC(=O)O)NC(=O)[C@H](CCC(N)=O)NC(=O)[C@H](Cc1c[nH]c2ccccc12)NC(C)=O)C(C)C)C(=O)N[C@@H](CO)C(=O)N[C@@H](CCC(N)=O)C(=O)N[C@@H](CCCNC(=N)N)C(=O)N[C@@H](CC(C)C)C(=O)N[C@@H](CCC(=O)O)C(=O)N[C@@H](CCC(N)=O)C(=O)N[C@@H](C)C(=O)N[C@@H](CCC(N)=O)C(=O)N[C@H](C(=O)N[C@@H](CCC(N)=O)C(=O)N[C@@H](CCC(N)=O)C(=O)N[C@@H](CCC(=O)O)C(=O)N[C@@H](CCCCN)C(=O)N[C@@H](CC(N)=O)C(=O)N[C@@H](CCSC)C(=O)N[C@@H](Cc1ccc(O)cc1)C(=O)N[C@@H](CCC(=O)O)C(=O)N[C@@H](CC(C)C)C(=O)N[C@@H](CCC(N)=O)C(N)=O)[C@@H](C)CC", "note": "[P3]", "values": [{"measurement": "antiviral activity in the presence of SP 1%", "setting": "[1]; P3 366.4 nM, seminal plasma 1% (v/v), 37°C, 1 week", "value": "significant decrease of antiviral activity"}, {"measurement": "antiviral activity in the presence of human fluids", "setting": "[1]; P3 366.4 nM, SP 0.5% or 1% (v/v), VFS, SP+VFS, 37°C, up to 1 week of contact, at least two experiments in triplicate", "value": "unaffected"}, {"measurement": "time of full antiviral activity in the presence of human biological fluids", "setting": "[1]; P3 366.4 nM, SP 0.5% or 1%, VFS, 37°C", "value": "at least 48 h"}, {"measurement": "mean viral inhibition", "setting": "[1]; P3 at IC90 (366.4 nM) in growth medium, incubated 1 week at 25°C before assay", "value": 99, "unit": "%"}, {"measurement": "mean viral inhibition", "setting": "[1]; P3 at IC90 (366.4 nM) in growth medium, incubated 1 week at 37°C before assay", "value": 99, "unit": "%"}, {"measurement": "mean viral inhibition", "setting": "[1]; P3 at IC90 (366.4 nM) in growth medium, incubated 1 week at 65°C before assay", "value": 100, "unit": "%"}, {"measurement": "mean viral inhibition", "setting": "[1]; control: P3 at IC90 (366.4 nM), antiviral activity determined after 48h at 37°C", "value": 99, "unit": "%"}, {"measurement": "P3 level", "setting": "[2]; after 48h in 1% human seminal plasma", "value": "< 2.5", "unit": "µg/mL"}, {"measurement": "P3 level", "setting": "[2]; after one week in 0.5% human seminal plasma", "value": "< 2.5", "unit": "µg/mL"}, {"measurement": "detection of P3 in the presence of VFS", "setting": "[2]; vaginal fluid simulant pH 4.2, LC-MS/MS (MRM)", "value": "readily detectable"}]}]}
